# From patent US9464082B2, “Aryl and arylalkyl substituted pyrazolyl and pyrimidinyl tricyclic enones as antioxidant inflammation modulators” (AbbVie Inc., priority 2014, dated 2016)
# Tested on: IFNγ-Induced NO Production
# Assay: Nitric Oxide Suppression Assay (Suppression of IFNγ-Induced NO Production)
# Type: cell-based
# Conditions: RAW264.7; RAW 264.7 mouse macrophage cells; 2 hour pre-treatment with compound (3 μM to 0.3 nM, 10 point curve); 20 ng/mL interferon gamma, ~18 hour; Griess detection; n=2-3 in duplicates
# Method: RAW 264.7, a mouse macrophage cell line, was obtained from American Type Culture Collection (Manassas Va.) and maintained in the log phase of growth in Dulbecco's Modified Eagle's Medium (DMEM), 10% heat inactivated fetal calf serum and 100 units/mL antibiotic-antimycotic (AA). Cells were cultured and maintained in a humidified incubator at 37° C. under 5% CO2 and 95% air. Cells were sub-cultured every 3 days by scraping and were not used beyond passage 20. All cell culture supplies were obtained from Life Technologies (Grand Island, N.Y.).
# RAW 264.7 cells were plated 1 day in advance of experiment at a concentration of 80,000 cells/well onto CellBIND® 96 well plates (Corning, N.Y.) in a total volume of 100 μL. The next day, pre-treat cells with compounds (from 3 μM to 0.3 nM serially diluted in a 10 point curve) from a 10× stock by adding 10 μL per well in complete DMEM media containing 10% fetal calf serum. The plates were centrifuged for 3 minutes at 400×g at room temperature followed by 2 hour incubation at 37° C. The cells were then incubated overnight at 37° C. with 10 μL of the insult, interferon gamma (R&D Systems, Minneapolis, Minn.), from a 10× stock for a final concentration of 20 ng/mL. The plates were centrifuged for 3 minutes at 400×g at room temperature followed by ˜18 hour incubation at 37° C. The following day, transfer 50 μL cell culture supernatant from each well into a clear bottom 96 well plate and follow the instructions from Promega's Griess Detection Kit #G2930 (Madison, Wis.) which involves the addition of 50 μL of the provided sulfanilamide solution for a 5-10 minute incubation at room temperature. Next add 50 μL of the provided N-1-napthylethylenediamine dihydrochloride (NED) solution for a 5-10 minute incubation at room temperature and protected from light. If any air bubbles were introduced into the well, the plates need to be centrifuged for 5 minutes at 400×g at room temperature to avoid interference with absorbance readings. The plates were read for absorbance within 30 minutes with a filter between 520 nm and 550 nm.
# For the ability of compounds to suppress the increase in nitric oxide release, the percent maximal intensity of nitric oxide detected in each well was normalized to that induced by the peak value for 20 ng/mL of interferon gamma alone and plotted against the compound concentration to calculate IC50 values and to control for plate-to-plate variability. Concentration-response data were analyzed using GraphPad Prism (San Diego, Calif.); the IC50 values were derived from a single curve fit to the mean data of n=2-3, in duplicates.
# All compounds were dissolved in dimethyl sulfoxide at 10 mM stock solutions and tested at a concentration that the dimethyl sulfoxide levels never exceeded 1%.
row,Structure (SMILES),IC50
1,"COC(=O)n1cc2c(n1)[C@@]1(c3ccccc3)C=C(C#N)C(=O)[C@@H](C)[C@@H]1CC2 [Example 32, methyl (5aS,6S,9aR)-8-cyano-6-methyl-7-oxo-9a-phenyl-4,5,5a,6,7,9a-hexahydro-2H-benzo[g]indazole-2-carboxylate]",25.9 nM
2,"Cc1nc(-c2cn[nH]c2)c2c(n1)[C@@]1(c3ccccc3)C=C(C#N)C(=O)[C@@H](C)[C@@H]1CC2 [Example 34, (6aS,7S,10aR)-2,7-dimethyl-8-oxo-10a-phenyl-4-(1H-pyrazol-4-yl)-5,6,6a,7,8,10a-hexahydrobenzo[h]quinazoline-9-carbonitrile]",2.86 nM
3,"Cc1nc(-c2cnn(C)c2)c2c(n1)[C@@]1(c3ccccc3)C=C(C#N)C(=O)[C@@H](C)[C@@H]1CC2 [Example 35, (6aS,7S,10aR)-2,7-dimethyl-4-(1-methyl-1H-pyrazol-4-yl)-8-oxo-10a-phenyl-5,6,6a,7,8,10a-hexahydrobenzo[h]quinazoline-9-carbonitrile]",4.86 nM
4,"C[C@@H]1C(=O)C(C#N)=C[C@]2(c3ccccc3)c3nn(S(C)(=O)=O)cc3CC[C@@H]12 [Example 36, (5aS,6S,9aR)-6-methyl-2-(methylsulfonyl)-7-oxo-9a-phenyl-4,5,5a,6,7,9a-hexahydro-2H-benzo[g]indazole-8-carbonitrile]",69.3 nM
5,"C[C@@H]1C(=O)C(C#N)=C[C@]2(c3ccccc3)c3nn(C(=O)Oc4ccccc4)cc3CC[C@@H]12 [Example 37, phenyl (5aS,6S,9aR)-8-cyano-6-methyl-7-oxo-9a-phenyl-4,5,5a,6,7,9a-hexahydro-2H-benzo[g]indazole-2-carboxylate]",60.5 nM
6,"C[C@@H]1C(=O)C(C#N)=C[C@]2(c3ccccc3)c3nn(C(=O)c4ccccc4)cc3CC[C@@H]12 [Example 38, (5aS,6S,9aR)-2-benzoyl-6-methyl-7-oxo-9a-phenyl-4,5,5a,6,7,9a-hexahydro-2H-benzo[g]indazole-8-carbonitrile]",75.2 nM
7,"C[C@@H]1C(=O)C(C#N)=C[C@]2(c3ccccc3)c3nn(C(=O)CNC(=O)OC(C)(C)C)cc3CC[C@@H]12 [Example 39, tert-butyl {2-[(5aS,6S,9aR)-8-cyano-6-methyl-7-oxo-9a-phenyl-4,5,5a,6,7,9a-hexahydro-2H-benzo[g]indazol-2-yl]-2-oxoethyl}carbamate]",53.6 nM
8,"C[C@@H]1C(=O)C(C#N)=C[C@]2(c3ccccc3)c3nn(C(=O)c4cscn4)cc3CC[C@@H]12 [Example 40, (5aS,6S,9aR)-6-methyl-7-oxo-9a-phenyl-2-(1,3-thiazol-4-ylcarbonyl)-4,5,5a,6,7,9a-hexahydro-2H-benzo[g]indazole-8-carbonitrile]",45.4 nM
9,"C[C@@H]1C(=O)C(C#N)=C[C@]2(c3ccccc3)c3nn(S(=O)(=O)c4ccccc4)cc3CC[C@@H]12 [Example 41, (5aS,6S,9aR)-6-methyl-7-oxo-9a-phenyl-2-(phenylsulfonyl)-4,5,5a,6,7,9a-hexahydro-2H-benzo[g]indazole-8-carbonitrile]",1180 nM
10,"C[C@@H]1C(=O)C(C#N)=C[C@]2(c3ccccc3)c3nn(C(=O)CO)cc3CC[C@@H]12 [Example 42, (5aS,6S,9aR)-2-glycoloyl-6-methyl-7-oxo-9a-phenyl-4,5,5a,6,7,9a-hexahydro-2H-benzo[g]indazole-8-carbonitrile]",34.2 nM
11,"COc1cccc(-c2nc(C)nc3c2CC[C@H]2[C@H](C)C(=O)C(C#N)=C[C@]32c2ccccc2)c1 [Example 43, (6aS,7S,10aR)-4-(3-methoxyphenyl)-2,7-dimethyl-8-oxo-10a-phenyl-5,6,6a,7,8,10a-hexahydrobenzo[h]quinazoline-9-carbonitrile]",16.5 nM
12,"Cc1nc(-c2ccc(=O)n(C)c2)c2c(n1)[C@@]1(c3ccccc3)C=C(C#N)C(=O)[C@@H](C)[C@@H]1CC2 [Example 44, (6aS,7S,10aR)-2,7-dimethyl-4-(1-methyl-6-oxo-1,6-dihydropyridin-3-yl)-8-oxo-10a-phenyl-5,6,6a,7,8,10a-hexahydrobenzo[h]quinazoline-9-carbonitrile]",51.1 nM
13,"Cc1nc(-c2ccc3ncccc3c2)c2c(n1)[C@@]1(c3ccccc3)C=C(C#N)C(=O)[C@@H](C)[C@@H]1CC2 [Example 45, (6aS,7S,10aR)-2,7-dimethyl-8-oxo-10a-phenyl-4-(quinolin-6-yl)-5,6,6a,7,8,10a-hexahydrobenzo[h]quinazoline-9-carbonitrile]",106 nM
14,"CC(=O)OCCc1cccc(-c2nc(C)nc3c2CC[C@H]2[C@H](C)C(=O)C(C#N)=C[C@]32c2ccccc2)c1 [Example 46, 2-{3-[(6aS,7S,10aR)-9-cyano-2,7-dimethyl-8-oxo-10a-phenyl-5,6,6a,7,8,10a-hexahydrobenzo[h]quinazolin-4-yl]phenyl}ethyl acetate]",7.52 nM
15,"Cc1nc(-c2cccc(CCO)c2)c2c(n1)[C@@]1(c3ccccc3)C=C(C#N)C(=O)[C@@H](C)[C@@H]1CC2 [Example 47, (6aS,7S,10aR)-4-[3-(2-hydroxyethyl)phenyl]-2,7-dimethyl-8-oxo-10a-phenyl-5,6,6a,7,8,10a-hexahydrobenzo[h]quinazoline-9-carbonitrile]",18.8 nM
16,"C[C@@H]1C(=O)C(C#N)=C[C@]2(c3ccccc3)c3nn(C(=O)Nc4cccnc4)cc3CC[C@@H]12 [Example 48, (5aS,6S,9aR)-8-cyano-6-methyl-7-oxo-9a-phenyl-N-(pyridin-3-yl)-4,5,5a,6,7,9a-hexahydro-2H-benzo[g]indazole-2-carboxamide]",40.1 nM
17,"C[C@@H]1C(=O)C(C#N)=C[C@]2(c3ccccc3)c3nc(-c4cncnc4)ncc3CC[C@@H]12 [Example 49, (6aS,7S,10aR)-7-methyl-8-oxo-10a-phenyl-2-(pyrimidin-5-yl)-5,6,6a,7,8,10a-hexahydrobenzo[h]quinazoline-9-carbonitrile]",7.15 nM
18,"C[C@@H]1C(=O)C(C#N)=C[C@]2(c3ccc(F)cc3)c3ncncc3CC[C@@H]12 [Example 50, (6aS,7S,10aR)-10a-(4-fluorophenyl)-7-methyl-8-oxo-5,6,6a,7,8,10a-hexahydrobenzo[h]quinazoline-9-carbonitrile]",10.3 nM
19,"C[C@@H]1C(=O)C(C#N)=C[C@]2(c3ccc(F)cc3)c3nc(-c4cccnc4)ncc3CC[C@@H]12 [Example 51, (6aS,7S,10aR)-10a-(4-fluorophenyl)-7-methyl-8-oxo-2-(pyridin-3-yl)-5,6,6a,7,8,10a-hexahydrobenzo[h]quinazoline-9-carbonitrile]",6.14 nM
20,"C[C@@H]1C(=O)C(C#N)=C[C@]2(c3ccccc3)c3nn(C)cc3CC[C@@H]12 [Example 52, (5aS,6S,9aR)-2,6-dimethyl-7-oxo-9a-phenyl-4,5,5a,6,7,9a-hexahydro-2H-benzo[g]indazole-8-carbonitrile]",53.2 nM
21,"C[C@@H]1C(=O)C(C#N)=C[C@]2(c3cccc(F)c3)c3n[nH]cc3CC[C@@H]12 [Example 53, (5aS,6S,9aR)-9a-(3-fluorophenyl)-6-methyl-7-oxo-4,5,5a,6,7,9a-hexahydro-2H-benzo[g]indazole-8-carbonitrile]",31.7 nM
22,"C[C@@H]1C(=O)C(C#N)=C[C@]2(c3ccc(F)cc3)c3n[nH]cc3CC[C@@H]12 [Example 54, (5aS,6S,9aR)-9a-(4-fluorophenyl)-6-methyl-7-oxo-4,5,5a,6,7,9a-hexahydro-2H-benzo[g]indazole-8-carbonitrile]",35.5 nM
23,"C[C@@H]1C(=O)C(C#N)=C[C@]2(c3cccc(F)c3)c3ncncc3CC[C@@H]12 [Example 55, (6aS,7S,10aR)-10a-(3-fluorophenyl)-7-methyl-8-oxo-5,6,6a,7,8,10a-hexahydrobenzo[h]quinazoline-9-carbonitrile]",11.4 nM
24,"COc1ccc([C@]23C=C(C#N)C(=O)[C@@H](C)[C@@H]2CCc2c[nH]nc23)cc1 [Example 58, (5aS,6S,9aR)-9a-(4-methoxyphenyl)-6-methyl-7-oxo-4,5,5a,6,7,9a-hexahydro-2H-benzo[g]indazole-8-carbonitrile]",33.4 nM
25,"COC(=O)c1cccc([C@]23C=C(C#N)C(=O)[C@@H](C)[C@@H]2CCc2cncnc23)c1 [Example 59, methyl 3-[(6aS,7S,10aR)-9-cyano-7-methyl-8-oxo-6,6a,7,8-tetrahydrobenzo[h]quinazolin-10a(5H)-yl]benzoate]",6.53 nM
26,"C[C@@H]1C(=O)C(C#N)=C[C@]2(c3cccc(C(=O)O)c3)c3ncncc3CC[C@@H]12 [Example 60, 3-[(6aS,7S,10aR)-9-cyano-7-methyl-8-oxo-6,6a,7,8-tetrahydrobenzo[h]quinazolin-10a(5H)-yl]benzoic acid]",> 3000 nM
